Measurements taken from patent US20200278355A1, “CONJUGATED PROTEINS AND USES THEREOF” (THE SCRIPPS RESEARCH INSTITUTE, priority 2017, published 2020).

Biological target: T1, RBM45-NR0B1 interaction (Homo sapiens, UniProt P51843)
T1 construct: endogenous in cells; host or cells: H460 cells (also H2122 and A549) stably expressing FLAG-RBM45 by lentiviral transduction (FLAG-pLJM1)
T1 sequence (P51843 1-470): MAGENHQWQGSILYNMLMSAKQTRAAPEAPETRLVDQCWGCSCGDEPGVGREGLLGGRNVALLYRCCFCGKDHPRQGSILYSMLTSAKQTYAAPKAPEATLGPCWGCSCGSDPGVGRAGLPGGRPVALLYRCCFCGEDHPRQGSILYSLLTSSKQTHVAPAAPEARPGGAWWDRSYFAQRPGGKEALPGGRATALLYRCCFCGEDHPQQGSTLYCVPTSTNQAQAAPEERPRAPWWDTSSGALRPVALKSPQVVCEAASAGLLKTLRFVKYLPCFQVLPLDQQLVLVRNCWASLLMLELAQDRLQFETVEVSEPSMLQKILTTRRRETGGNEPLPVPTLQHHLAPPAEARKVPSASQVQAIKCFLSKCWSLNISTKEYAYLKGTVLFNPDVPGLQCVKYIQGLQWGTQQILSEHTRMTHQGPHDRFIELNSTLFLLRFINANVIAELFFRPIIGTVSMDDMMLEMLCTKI
Experiment: RBM45-NR0B1 interaction in NSCLC cells stably expressing FLAG-RBM45 (FLAG immunoprecipitation)
Type: cell-based
Conditions: 3 h; for blockade of the RBM45-NR0B1 interaction: H460 cells; for blockade of NR0B1 binding to FLAG-RBM45: H2122 and A549 cells
Method: FIG. 6A-FIG. 6F show characterization of NR0B1 ligands in KEAP1-mutant NSCLC cells. […] Dashed lines designate R values≥3 (DMSO/compound), which was used as a cutoff to define cysteines liganded by the indicated compounds. Insets show MS1 profiles for C274 in NR0B1 for DMSO (blue) versus compound (red) treatment. Data are from individual experiments representative of at least three biological replicates. […] (See also Table 5). […] H460 cells stably expressing FLAG-RBM45 were incubated with indicated compounds for 3 h, whereupon FLAG immunoprecipitates were performed and analyzed by immunoblotting. […] Experiments performed as described in (C). […] Dashed line designates R values (light/heavy) of <8, which was used as a cutoff for fast-turnover proteins. […] Charts comparing fraction of NRF2-regulated genes (as determined by RNAseq) for which the corresponding proteins are designated as fast or slow turnover (as determined in G) further divided into groups showing reduced expression (left) or not (right) on day 1 following NRF2 knockdown (as determined by isoTOP-ABPP).
FIG. 12A-FIG. 12G show characterization of NR0B1 ligands in Keap1-mutant NSCLC cells. […] Data obtained from isoTOP-ABPP experiments of H460 cells treated with compound (red traces) or DMSO (blue traces) for 3 h. […] Shown are MS1 profiles for quantified cysteines in NR0B1 following treatment with BPK-29 (40 μM, red; top) BPK-26 (40 μM, red; bottom) or DMSO (blue) for 3 h. […] KEAP1-null HEK293T cells stably expressing FLAG-RBM45 or FLAG-SNW1 were incubated with the indicated compounds for 3 h, after which FLAG immunoprecipitates were prepared from cell lysates. Immunoprecipitates and lysates were analyzed by immunoblotting for the indicated proteins. Dashed lines represent a lane that was cropped from this immunoblot. […] H2122 or A549 cells stably expressing FLAG-RBM45 were incubated with the indicated compounds for 3 h, after which FLAG immunoprecipitates were prepared. Immunoprecipitates and lysates were analyzed as described in (E). […] H2122 cells stably expressing FLAG-RBM45 or A549 cells stably expressing FLAG-SNW1 were incubated with indicated compounds for 3 h and FLAG immunoprecipitates were prepared and analyzed as described in (E).
Confluent 10 cm plates of indicated cell lines were rinsed once with warm PBS and incubated in serum/dye-free RPMI with indicated compounds or vehicle for 3 h at 37° C. Cells were washed once ice-cold PBS and snap frozen.
Cells were rinsed once with ice-cold PBS, and lysed by sonication in Triton IP buffer. Lysates were clarified by centrifugation at 16,000×g for 10 min. […] Proteins were resolved by SDS-PAGE, analyzed by immunoblotting and relative band intensities were quantified using ImageJ software.

SMILES	blockade of the RBM45-NR0B1 interaction	blockade of NR0B1 binding to FLAG-RBM45
O=C(c1ccc(N2CCOCC2)cc1)N1CCCC(N(Cc2ccccc2)C(=O)CCl)CC1 (stereo not shown) [BPK-29, N-benzyl-2-chloro-N-(1-(4-morpholinobenzoyl)azepan-4-yl)acetamide]	block	block
O=C(CCl)N(Cc1cccc(Cl)c1F)c1ccc(Cl)nc1 [BPK-26, 2-chloro-N-(3-chloro-2-fluorobenzyl)-N-(6-chloropyridin-3-yl)acetamide]	block	block
